Assay results: US20040009973A1, “Novel potassium channels modulators” (4SC AG, priority 2002, published 2004)

What was measured:
[1] = molecular target: T1, BK potassium channel, cloned hSlo (α-hSlo and β-bSlo) in CHO cells (Homo sapiens, UniProt Q12791); assay: Em-Assay: membrane potential with voltage sensitive dye DiBAC(4)3, fluorescence plate reader; format: cell-based; conditions: compound 50 μM; NS004 25 or 50 μM; hSlo transfected CHO cells; change in DiBAC(4)3 fluorescence intensity
T1 construct: expressed in transfected cells; host or cells: CHO cells, permanently transfected
Text: The large conductance, voltage-dependent and Ca^2+-activated potassium channel BK is a potassium selective ion channel and belongs to the subfamily of KCa channels. Four BK alpha-subunits form a functional channel that can be regulated by intracellular Ca^2+ concentration, membrane voltage, and other mechanisms like phosphorylation states or beta subunits. To test the biological activity of the compounds, we applied two different techniques, a fluorescence based assay using a voltage sensitive dye (Em-Assay) as well as exploiting electrophysiological methods.
CHO cells permanently transfected with cloned hSlo (α-hSlo and β-bSlo), yielding typical BK potassium currents (Zhou et al., Pflügers Arch., 436: 725-734 (1998), were used for the evaluation of compound activity. Activation or inhibition of BK channels in these cells leads to a change of the electrochemical gradient causing a hyperpolarized or depolarised membrane potential, respectively.
To determine changes in the membrane potential of the cells we used the voltage sensitive dye DiBAC(4)3 (Molecular Probes) in a kinetic assay system using a fluorescent plate reader (Manning and Sontheimer, J. Neurosci, Meth., 91: 73-81 (1999). The anionic bis-oxonol DiBAC(4)3 is a voltage sensitive dye which partitions from the extracellular environment into the cell where it reversibly binds to intracellular proteins, a kinetic process depending on the membrane potential of the cell. At depolarised potentials (i.e. at a reduced K^+ efflux due to blocked K^+ channels) the dye accumulates in the cell leading to an increased fluorescence intensity, due to its increased fluorescence if bound to cellular proteins. At hyperpolarized potentials (i.e. at an increased K^+ efflux due to the opening of K^+ channels), the dye partitions out of the cell causing a decreased fluorescence intensity.
hSlo transfected CHO cells where maintained in DMEM supplemented with 10% FCS, 250 μg/ml Geneticin, 100 μg/ml Hygromycin, 1×HT-Supplement, and 1×Non-essential Amino Acids and cultured in a humidified CO2 incubator. After trypsination, cells where plated with a density of 5×10^4 cells per well on a clear 96-well plate and incubated for 24 h. Cells where washed once with PBS, once with PBS containing 20 mM HEPES (adjusted to pH 7.4 with NaOH) and 2 μM DIBAC(4)3 (DPBS-DiBAC solution). 180 μl of the dPBS-DiBAC solution was then added to the cells and the plate incubated for 30-60 min at 37° C. During this time the dye could partition into the cells and reach a certain steady-state distribution, depending on the resting membrane potential. Test and reference compounds were stored as DMSO stock solutions and diluted in dPBS-DiBAC solution to the desired concentration.
Fluorescence intensity (Ex.: 485 nm/Em.: 520 nm) of each well was detected in the plate reader (Fluostar, BMG) every 60 seconds. After recording the baseline fluorescence for 7 minutes, 20 μl test—and reference compounds were added and the fluorescence intensity was detected for additional 15 minutes. Background was subtracted, data values were normalized and expressed as a change in fluorescence intensity against time. The change in fluorescence intensity caused by the test compounds was evaluated, compared to the effect of the reference compound NS004, and the ratio was determined (see Table I).

[2] = molecular target: BK currents, cloned α-hSlo and β-bSlo in CHO cells (Homo sapiens, UniProt Q12791); assay: Electrophysiological studies: whole-cell patch-clamp of BK currents; format: cell-based; conditions: compound 20 μM, steady-state BK current, free internal Ca2+ 1×10^−6M
Method: Electrophysiological Studies:
CHO cells permanently transfected with cloned α-hSlo and β-bSlo were maintained as described above and used for electrophysiological characterisation, The whole-cell configuration of the patch-clamp technique was used to determine the effect of modulators on BK currents in these cells. The cell line expressing functional BK currents (Zhou et al., Pflügers Arch. 436, p.725 (1998)) were plated onto glass cover slips with a density of 1-5×10^4 cells/cover slip, incubated (37° C., 5% CO2) and used for patch-clamp experiments within 24-48 h. Cells were bathed in mammalian ringer solutions containing (in mM): 160NaCl, 4.5KCl, 2CaCl2, 1MgCl2, 10 HEPES, adjusted to pH 7.4, 290-310 mOsm. The internal pipette solution contained (in mM): 160KCl, 2CaCl2, 1MgCl2, 10 HEPES, EGTA was added to reach a free [Ca^2+]internal=1×10^−6M, adjusted to pH 7.2, 290-310 mOsm. Borosilicate pipettes with a resistance of 2-3 MΩ were filled with the internal solution and mounted on an appropriate holder. Prior to measurements a recording chamber was mounted onto the cell-plated cover slips and the cells were perfused with a simple syringe driven perfusion system. Compounds were added in the final concentration ([…]) to the bath solution using the same system. An EPC-9 patch-clamp amplifier with Pulse and PulseFit software (HEKA) was used to record and analyze currents.
After addition of the compounds to the bath solution their modulating effect was determined by the increase or decrease of specific BK currents after reaching steady-state relative to the BK current before application of drugs (see Table II).

Sequence of BK currents, cloned α-hSlo and β-bSlo in CHO cells (Q12791 whole entry): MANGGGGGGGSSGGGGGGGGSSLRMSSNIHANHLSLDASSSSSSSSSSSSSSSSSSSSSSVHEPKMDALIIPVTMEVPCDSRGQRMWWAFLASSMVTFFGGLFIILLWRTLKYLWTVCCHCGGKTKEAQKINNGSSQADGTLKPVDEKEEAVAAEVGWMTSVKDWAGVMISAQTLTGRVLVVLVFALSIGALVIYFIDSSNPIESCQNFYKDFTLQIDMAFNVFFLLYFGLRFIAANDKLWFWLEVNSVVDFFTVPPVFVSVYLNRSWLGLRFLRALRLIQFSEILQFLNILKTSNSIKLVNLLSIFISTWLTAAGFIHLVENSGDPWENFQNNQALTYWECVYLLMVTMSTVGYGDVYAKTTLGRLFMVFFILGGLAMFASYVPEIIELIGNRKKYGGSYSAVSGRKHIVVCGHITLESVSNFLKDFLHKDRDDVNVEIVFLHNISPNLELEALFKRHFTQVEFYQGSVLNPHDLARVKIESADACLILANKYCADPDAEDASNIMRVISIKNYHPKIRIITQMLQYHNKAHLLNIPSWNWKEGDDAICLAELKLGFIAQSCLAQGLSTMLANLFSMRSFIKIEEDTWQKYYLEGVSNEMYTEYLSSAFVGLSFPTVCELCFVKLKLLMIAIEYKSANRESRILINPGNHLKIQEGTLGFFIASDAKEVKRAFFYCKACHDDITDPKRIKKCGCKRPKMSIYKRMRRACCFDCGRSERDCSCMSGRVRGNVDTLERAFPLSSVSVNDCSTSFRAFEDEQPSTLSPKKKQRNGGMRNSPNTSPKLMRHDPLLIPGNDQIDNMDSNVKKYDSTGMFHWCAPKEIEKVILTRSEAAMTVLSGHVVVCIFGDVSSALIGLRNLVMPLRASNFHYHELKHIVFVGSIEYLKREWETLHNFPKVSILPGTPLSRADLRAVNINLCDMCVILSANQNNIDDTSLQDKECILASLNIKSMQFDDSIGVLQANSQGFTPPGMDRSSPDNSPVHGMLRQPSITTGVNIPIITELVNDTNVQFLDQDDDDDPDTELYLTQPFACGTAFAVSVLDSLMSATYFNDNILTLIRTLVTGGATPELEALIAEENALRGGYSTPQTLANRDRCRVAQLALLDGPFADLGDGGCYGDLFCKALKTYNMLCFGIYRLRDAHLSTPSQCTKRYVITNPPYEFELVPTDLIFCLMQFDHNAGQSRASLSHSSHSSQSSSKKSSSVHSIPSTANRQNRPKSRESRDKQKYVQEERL
Sequence of BK currents, cloned α-hSlo and β-bSlo in CHO cells (Q28067 2-191 partner): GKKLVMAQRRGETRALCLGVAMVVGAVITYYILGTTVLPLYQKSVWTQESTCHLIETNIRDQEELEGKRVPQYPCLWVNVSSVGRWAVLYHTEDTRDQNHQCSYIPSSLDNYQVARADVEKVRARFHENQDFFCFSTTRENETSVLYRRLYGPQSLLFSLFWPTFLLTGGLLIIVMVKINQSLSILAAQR
T1 sequence (Q12791 1-1178 isoform Q12791-5): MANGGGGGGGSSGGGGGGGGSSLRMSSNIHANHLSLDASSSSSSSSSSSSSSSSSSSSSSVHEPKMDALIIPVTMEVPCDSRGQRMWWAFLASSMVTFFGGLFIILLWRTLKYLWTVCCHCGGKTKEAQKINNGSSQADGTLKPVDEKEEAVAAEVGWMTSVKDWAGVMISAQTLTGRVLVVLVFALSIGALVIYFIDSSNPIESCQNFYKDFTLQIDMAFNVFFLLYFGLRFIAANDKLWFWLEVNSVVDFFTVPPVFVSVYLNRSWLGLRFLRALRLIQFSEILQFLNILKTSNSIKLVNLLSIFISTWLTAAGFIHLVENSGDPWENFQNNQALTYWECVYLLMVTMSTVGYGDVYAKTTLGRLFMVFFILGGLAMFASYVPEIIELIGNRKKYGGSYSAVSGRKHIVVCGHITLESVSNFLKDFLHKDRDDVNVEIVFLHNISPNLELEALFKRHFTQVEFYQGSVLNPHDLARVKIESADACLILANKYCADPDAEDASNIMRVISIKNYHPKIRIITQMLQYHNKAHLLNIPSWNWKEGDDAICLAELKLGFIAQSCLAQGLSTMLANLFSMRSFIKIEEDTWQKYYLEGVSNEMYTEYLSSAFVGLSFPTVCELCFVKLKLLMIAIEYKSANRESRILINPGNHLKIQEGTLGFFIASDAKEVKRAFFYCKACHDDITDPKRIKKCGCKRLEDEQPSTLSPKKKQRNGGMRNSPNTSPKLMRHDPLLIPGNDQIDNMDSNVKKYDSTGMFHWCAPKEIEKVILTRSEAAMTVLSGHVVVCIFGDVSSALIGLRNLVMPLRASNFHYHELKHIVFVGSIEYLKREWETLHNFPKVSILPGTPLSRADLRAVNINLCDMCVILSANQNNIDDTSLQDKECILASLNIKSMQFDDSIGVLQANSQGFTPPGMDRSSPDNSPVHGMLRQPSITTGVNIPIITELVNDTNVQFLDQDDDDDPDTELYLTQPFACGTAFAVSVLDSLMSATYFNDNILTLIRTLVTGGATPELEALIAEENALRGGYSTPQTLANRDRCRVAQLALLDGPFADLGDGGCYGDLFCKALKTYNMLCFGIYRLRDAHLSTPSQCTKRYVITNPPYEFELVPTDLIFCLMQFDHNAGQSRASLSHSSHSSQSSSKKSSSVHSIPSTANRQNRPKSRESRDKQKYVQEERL
T1 sequence (Q28067 2-191 partner limits assumed): as the sequence (Q28067 2-191 partner) above

Row | Em effect: ratio of the compound effect compared to the maximal effect of NS004 [1] | Effect: ratio of current increase after application of compound relative to the control current before compound application [2] | Compound
1 | +++ (>1.5 = +++) | ++ (>1, 1-1.2 = ++) | FC(F)(F)c1cc(NCc2ccc(Br)cc2)cc(NCc2ccc3ccccc3c2)c1 [Compound 6, N-(4-Bromobenzyl)-N′-naphthalen-2-ylmethyl-5-trifluoromethylbenzene-1,3-diamine]
2 | +++ (>1.5 = +++) | + (1-1.1 = +) | FC(F)(F)c1cc(NCc2cccc(Cl)c2)cc(NCc2ccc3ccccc3c2)c1 [Compound 7, N-(3-Chlorobenzyl)-N′-naphthalen-2-ylmethyl-5-trifluoromethyl-benzene-1,3-diamine]
3 | + (0-1 = +) | + (1-1.1 = +) | Clc1cccc(CNc2cccc(NCc3cccc(Cl)c3)c2)c1 [Compound 11]
4 | + (0-1 = +) | + (1-1.1 = +) | Brc1ccc(CNc2cccc(NCc3ccc(Br)cc3)c2)cc1 [Compound 12]
5 | +++ (>1.5 = +++) | +++ (>1.2 = +++) | Clc1cc(NCc2ccc(Br)cc2)ccc1NCc1ccc(Br)cc1 [Compound 13, N^1,N^4-Bis-(4-bromobenzyl)-2-chlorobenzene-1,4-diamine]
6 | +++ (>1.5 = +++) | + (1-1.1 = +) | Clc1cccc(CNc2ccc(NCc3cccc(Cl)c3)c(Cl)c2)c1 [Compound 14]
7 | +++ (>1.5 = +++) | + (1-1.1 = +) | Clc1cc(NCc2ccc3ccccc3c2)ccc1NCc1ccc2ccccc2c1 [Compound 15]
8 | ++ (>1-1.5 = ++) | +++ (>1.2 = +++) | Fc1cccc(CNc2cccc(NCc3cccc(F)c3)c2)c1 [Compound 35, N,N′-bis-(3-fluorobenzyl)-benzene-1,3-diaimine]
9 | + (0-1 = +) |  | COc1cccc(CNc2cc(Cl)c(NCc3cccc(OC)c3)c(Cl)c2)c1 [Compound 90, 2,6-dichloro-N,N′-bis-(3-methoxy-benzyl)-benzene-1,4-diamine]
10 | + (0-1 = +) |  | Clc1cc(NCc2ccc(-c3csnn3)cc2)cc(Cl)c1NCc1ccc(-c2csnn2)cc1 [Compound 91]
11 | + (0-1 = +) |  | Fc1cccc(Cl)c1CNc1ccc(NCc2c(F)cccc2Cl)cc1 [Compound 92]
12 | + (0-1 = +) |  | Cc1cc(NCc2c(F)cccc2Cl)ccc1NCc1c(F)cccc1Cl [Compound 93]
13 | + (0-1 = +) |  | Fc1cccc(Cl)c1CNc1ccc(NCc2c(F)cccc2Cl)c(Cl)c1 [Compound 94]
14 | + (0-1 = +) |  | Clc1ccccc1CNc1ccc(NCc2ccccc2Cl)cc1 [Compound 95, N,N′-bis-(2-chlorobenzyl)-benzene-1,4-diamine]
15 | + (0-1 = +) |  | Clc1ccccc1CNc1ccc(NCc2ccccc2Cl)c(Cl)c1 [Compound 96]
16 | + (0-1 = +) |  | FC(F)(F)c1ccccc1CNc1ccc(NCc2ccccc2C(F)(F)F)cc1 [Compound 97]
17 | + (0-1 = +) |  | Fc1cc(F)cc(CNc2ccc(NCc3cc(F)cc(F)c3)cc2)c1 [Compound 98, N,N′-bis-(3,5-difluorobenzyl)-benzene-1,4-diamine]
18 | + (0-1 = +) |  | Fc1ccc(CNc2ccc(NCc3ccc(F)cc3F)cc2)c(F)c1 [Compound 99]
19 | + (0-1 = +) |  | Fc1cccc(CNc2ccc(NCc3cccc(F)c3)cc2)c1 [Compound 100, N,N′-bis(3-fluorobenzyl)-benzene-1,4-diamine]
20 | + (0-1 = +) |  | Cc1cc(NCc2ccc(C(F)(F)F)cc2)ccc1NCc1ccc(C(F)(F)F)cc1 [Compound 101, 2-methyl-N1,N4-bis-(4-trifluoromethylbenzyl)-benzene-1,4-diamine]
21 | + (0-1 = +) |  | Cc1cc(NCc2ccc(F)cc2F)ccc1NCc1ccc(F)cc1F [Compound 102, N^1,N^4-bis-(2,4-difluorobenzyl)-2-methylbenzene-1,4-diamine]
22 | + (0-1 = +) |  | Cc1cc(NCc2cccc(F)c2)ccc1NCc1cccc(F)c1 [Compound 103, N^1,N^4-bis-(3-fluorobenzyl)-2-methylbenzene-1,4-diamnine]
23 | + (0-1 = +) |  | FC(F)(F)c1ccccc1CNc1ccc(NCc2ccccc2C(F)(F)F)c(Cl)c1 [Compound 104, 2-chloro-N^1,N^4-bis-(2-trifluoromethylbenzyl)-benzene-1,4-diamine]
24 | + (0-1 = +) |  | FC(F)(F)c1ccc(CNc2ccc(NCc3ccc(C(F)(F)F)cc3)c(Cl)c2)cc1 [Compound 105]
25 | + (0-1 = +) |  | Fc1ccc(CNc2ccc(NCc3ccc(F)cc3F)c(Cl)c2)c(F)c1 [Compound 106]
26 | + (0-1 = +) |  | Fc1cccc(CNc2ccc(NCc3cccc(F)c3)c(Cl)c2)c1 [Compound 107]
